Experimental data published in publication PMC9457533, “Study on Metronidazole Acid-Base Behavior and Speciation with Ca^2+ for Potential Applications in Natural Waters” (Molecules, 2022).
Where “and” joins values, the source holds several entries; their conditions need not be identical. Identical values can stand only once. Like-named read-outs stand apart in the source and are kept apart here.

Experiments:
[1] = design: method as in earlier work; details: t = 25 °C, I = 0.5 mol L^-1 in KCl, potentiometry; cited from earlier work
[2] = UV-Vis spectrophotometric titrations: formation constant of Ca^2+-MNZ species; assay type: physicochemical; details: Ca + L + H = CaLH; t = 25 °C, I = 0.15 mol L^-1
Description: (§1) As widely reported in the literature, the high ability of L to absorb in the UV range has often been used to determine quantitatively and qualitatively this antibiotic in waters. Various spectrophotometric titrations on solutions containing L and M-L mixtures were performed to investigate L spectral behavior and to confirm the protonation and formation constants values as well as the speciation model obtained by potentiometry, as already shown with other systems.
(§2) The spectrophotometric titrations were performed with a Varian Cary 50 UV-Vis spectrophotometer characterized by an optical fiber with a fixed 1 cm path length. The system was interfaced to a PC by the Varian Cary WinUV software. For all titrations, a Thermo-Fisher glass electrode was also used to record simultaneously the couple of data absorbance (A) and e.m.f. (mV) vs. volume of titrant (mL), for each titration point. The analyses were carried out in a thermostated cell, in which N2 was bubbled in solution to avoid CO2 and O2.
The protonation constant of MNZ (L), formation constant values of Ca^2+(M)-MNZ (L), and titration parameters (analytical concentration of the reagents, standard potential E^0, junction potential) were determined by using BSTAC and STACO programs. […] The speciation diagrams and the formation percentage of the species are determined by the Hyss program.

[3] = UV-Vis spectrophotometric titrations: protonation constants of MNZ; assay type: physicochemical; details: t = 25 °C; for logβ UV: I = 0.15 mol L^-1
Description: as §1, §2
(§3) The protonation constant of MNZ (L), formation constant values of Ca^2+(M)-MNZ (L), and titration parameters (analytical concentration of the reagents, standard potential E^0, junction potential) were determined by using BSTAC and STACO programs. LIANA program has provided the parameters characterizing the dependence of the protonation and formation constant values on the temperature and ionic strength. More details on software are present in ref. [59]. ^1H NMR data were processed by HypNMR software, which allows for calculating protonation and formation constant values and the individual chemical shift of species through the observed signals and assuming fast mutual exchange in the NMR time scale. UV-Vis data are processed by the HypSpec program, which allows refining of the protonation and formation constant as well as the molar absorption coefficient values (ε) of the species. The speciation diagrams and the formation percentage of the species are determined by the Hyss program.

[4] = Dependence of Ca^2+-MNZ formation constant on temperature (van't Hoff equation), thermodynamic parameters; assay type: physicochemical; details: Ca + LH = CaLH; t = 298.15 K, I = 0.15 mol L^-1 NaCl
Description: The protonation and formation constants values acquired at the three different temperatures of 15, 25, and 37 °C, listed in Table 1, were used to study their dependence on temperature, as already shown for several systems. The data obtained by the potentiometric measurements were analyzed using the following van’t Hoff equation:logβT = logβθ + ΔH^0(1/θ − 1/T) R ln 10(6) where logβT is the stability constant at a certain temperature (expressed in kelvin), while logβθ is the stability constant at t = 298.15 K, and R is the universal gas constant expressed as 8.314 J K^−1 mol^−1. Using the equation just reported, it was possible to calculate the protonation and formation enthalpies change values, together with Gibbs free energy and entropy changes.
as §3

[5] = Potentiometric titrations: protonation constants of MNZ in NaCl; assay type: physicochemical; details: for logβ^H2L: 2H + L = H2L; for logβ^HL: H + L = HL; for logβ average value: I = 0.15 mol L^-1, average of 1H-NMR, UV; for logK^H2L: LH + H = H2L
From the text: The knowledge of the protonation constants of a ligand is crucial to defining the ionization state which influences several characteristics, such as aqueous solubility, and complexation ability. The equilibrium reactions associated with the protonation constant values are the following, where the charges are omitted for simplicity and MNZ was indicated as L: iH + L = HiL β^H^iL(1) H + Hi−1L = HiL K^H^iL(2)
The potentiometric titrations were employed by Metrohm-Titrando 809 automated potentiometer with a combined glass electrode ORION, type Ross 8102SC and a Metrohm Dosino 800 automatic dispenser. The titrations were performed in cells with a capacity of 25 mL, characterized by a double wall inside which thermostated water circulates. The cells were connected to a thermostat model D1-G Haake. During the measurements, pure N2 was bubbled to avoid CO2 and O2 in solution. The system is interfaced to a PC through the Metrohm TIAMO 2.0 software, which automatically acquires the mL/mV pairs. It can control several parameters, such as e.m.f. stability, titrant delivery, and data acquisition. Estimated accuracy of this apparatus is ±0.15 mV and ±0.002 mL for e.m.f. and for readings of titrant volume. The acid-base titrations were carried out first on 25 mL solutions containing L, HCl, and NaCl as supporting electrolytes at different temperatures and ionic strength conditions. Various potentiometric titrations are performed on 25 mL containing Ca^2+-L in different ratios, in NaCl at t = 15, 25, and 37 °C and I = 0.15, 0.5 and […]. The solutions were titrated using standard NaOH solution. A calibration was associated with each measurement by titration with NaOH of a solution containing HCl, NaCl, and H2O, in order to calculate the standard electrode potential (E^0) and the pKw values.
as §3

[6] = design: method as in PMID 23380153; details: 25 °C, I = 0.2 mol L^-1 in NaCl, water-ethanol (90:10, v/v), potentiometric titrations; cited from earlier work
[7] = design: method as in PMID 33975173; details: t = 25 °C, I = 0.1 mol L^-1 in NaClO4, spectrophotometry; cited from earlier work
[8] = t = 15 °C, I = 0.15 mol L^-1 NaCl
[9] = t = 15 °C, I = 0.5 mol L^-1 NaCl
[10] = t = 15 °C, I = 0.97 mol L^-1 NaCl
[11] = t = 25 °C, I = 0.5 mol L^-1 NaCl
[12] = t = 25 °C, I = 0.96 mol L^-1 NaCl
[13] = t = 37 °C, I = 0.14 mol L^-1 NaCl
[14] = t = 37 °C, I = 0.5 mol L^-1 NaCl
[15] = t = 37 °C, I = 0.96 mol L^-1 NaCl

logβ UV [2]: 14.17(2)
logβ UV ([3]; L + 2H = LH2): 14.20(6)
logβ UV ([3]; L + H = LH): 11.73(2) ^1
logK2 (protonation constant) ([3]; UV spectrophotometry, I = 0.15 mol L^-1 in NaCl): 2.47
TΔS [4]: -4.78 kcal/mol
ΔG [4]: -3.39 kcal/mol
ΔH [4]: -34 kJ mol^-1 and −34(8) kJ mol^-1
logβ^H2L [5, 8]: 14.559(5) ^4
logβ^H2L [5, 9]: 14.833(4)
logβ^H2L [5, 10]: 14.877(7)
logβ^H2L ([5]; t = 25 °C, I = 0.15 mol L^-1 NaCl, potentiometry): 14.130(4)
logβ^H2L [5, 11]: 15.18(4)
logβ^H2L [5, 12]: 15.05(6)
logβ^H2L [5, 13]: 14.27(8)
logβ^H2L [5, 14]: 14.75(8)
logβ^H2L [5, 15]: 14.601(8)
logβ^HL [5, 8]: 12.00(1) ^4
logβ^HL [5, 9]: 12.180(8)
logβ^HL [5, 10]: 12.12(1)
logβ^HL [5, 11]: 12.51(4)
logβ^HL [5, 12]: 12.22(6)
logβ^HL [5, 13]: 11.88(7)
logβ^HL [5, 14]: 12.14(8)
logβ^HL [5, 15]: 12.000(6)
logβ average value ([5]; L + 2H = LH2, t = 25 °C, potentiometry): 14.15(6)
logβ average value ([5]; L + H = LH, t = 25 °C, potentiometry): 11.74(2) ^1
logK^H2L [5, 8]: 2.56
logK^H2L [5, 9]: 2.653
logK^H2L [5, 10]: 2.76
logK^H2L ([5]; t = 25 °C, I = 0.15 mol L^-1 NaCl): 2.46
logK^H2L [5, 11]: 2.67
logK^H2L [5, 12]: 2.83
logK^H2L [5, 13]: 2.39
logK^H2L [5, 14]: 2.61
logK^H2L [5, 15]: 2.601
Structure (SMILES): Cc1ncc([N+](=O)[O-])n1CCO [MNZ, 2-Methyl-5-nitroimidazole-1-ethanol]
logK2 (protonation constant) [1]: 2.68
logK1 (protonation constant) [6]: 18.1
logK2 (protonation constant) [6]: 7.01
logK3 (protonation constant) [6]: 2.64
logK2 (protonation constant) [7]: 2.15
